The results in this text go back to ChEMBL document CHEMBL1129486, “(2S,4S)-2-amino-4-(4,4-diphenylbut-1-yl)- pentane-1,5-dioic acid: a potent and selective antagonist for metabotropic glutamate receptors negatively linked to adenylate cyclase” (J Med Chem, 1996).

Broadly, the IC50 is the midpoint of a concentration-inhibition curve. A higher IC50 goes with weaker potency.

In assay [1] the target is Metabotropic glutamate receptor. As to the kind of experiment: Compound was tested for its ability to displace metabotropic glutamate binding to rat brain membranes using [3H]glutamate radioligand. Format: tissue-based, Membrane.
A short description of assay [2]: Compound was evaluated for its ability to reverse ACPD-induced inhibition of forskolin-stimulated cAMP formation in the human mGluR2 expressing non-neuronal cells. Format: functional.

Molecules are shown by their SMILES.

On to `N[C@@H](C[C@H](CCCC(c1ccccc1)c1ccccc1)C(=O)O)C(=O)O`, for which the IC50 in assay [1] came to 4.1 µM; in assay [2] it was 18.1 µM. In the same order, the values of `N[C@@H](C[C@@H](CCCC(c1ccccc1)c1ccccc1)C(=O)O)C(=O)O` are 55.3 µM and 171 µM. In assay [1], `N[C@@H](CC(CCCC(c1ccccc1)c1ccccc1)C(=O)O)C(=O)O` (stereo not given in full) displayed an IC50 of 4.2 µM.
